Measurements published in PubChem BioAssay (NCI).
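Compound exposure: 48 hours, 5 concentrations, 96-well plates. TGI marks complete inhibition of growth.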

How the values were obtained:
Test in all cases: DTP human tumour cell line panel, 48 h
[1] = test system: 786-0 renal
[2] = test system: A498 renal
[3] = test system: A549 NSCLC
[4] = test system: ACHN renal
[5] = test system: BT-549 breast
[6] = test system: CAKI-1 renal
[7] = test system: CCRF-CEM leukemia
[8] = test system: COLO 205 colon
[9] = test system: DU-145 prostate
[10] = test system: EKVX NSCLC
[11] = test system: HCC-2998 colon
[12] = test system: HCT-116 colon
[13] = test system: HCT-15 colon
[14] = test system: HOP-62 NSCLC
[15] = test system: HOP-92 NSCLC
[16] = test system: HS 578T breast
[17] = test system: HT29 colon
[18] = test system: IGROV1 ovarian
[19] = test system: K-562 leukemia
[20] = test system: KM12 colon
[21] = test system: LOX IMVI melanoma
[22] = test system: M14 melanoma
[23] = test system: MCF7 breast
[24] = test system: MDA-MB-231 breast
[25] = test system: MDA-MB-435
[26] = test system: MDA-N
[27] = test system: MOLT-4 leukemia
[28] = test system: NCI-H226 lung
[29] = test system: NCI-H23 lung
[30] = test system: NCI-H460 lung
[31] = test system: NCI-H522 lung
[32] = test system: NCI/ADR-RES ovarian
[33] = test system: OVCAR-3 ovarian
[34] = test system: OVCAR-4 ovarian
[35] = test system: OVCAR-5 ovarian
[36] = test system: OVCAR-8 ovarian
[37] = test system: PC-3 prostate
[38] = test system: RXF 393 renal
[39] = test system: SF-268 CNS
[40] = test system: SF-295 CNS
[41] = test system: SF-539 CNS
[42] = test system: SK-MEL-2 melanoma
[43] = test system: SK-MEL-28 melanoma
[44] = test system: SK-MEL-5 melanoma
[45] = test system: SK-OV-3 ovarian
[46] = test system: SN12C renal
[47] = test system: SNB-75 CNS
[48] = test system: SR leukemia
[49] = test system: SW-620 colon
[50] = test system: T-47D breast
[51] = test system: TK-10 renal
[52] = test system: U251 CNS
[53] = test system: UACC-257 melanoma
[54] = test system: UACC-62 melanoma
[55] = test system: UO-31 renal
[56] = test system: MALME-3M melanoma
[57] = test system: RPMI-8226 leukemia
[58] = test system: SNB-19 CNS
[59] = test system: HL-60(TB) leukemia

Cc1ccc(-c2cc(=O)c(=O)[nH][nH]2)cc1
TGI [1]: > 100 µM | TGI [2]: > 100 µM | TGI [3]: > 100 µM | TGI [4]: > 100 µM | TGI [5]: > 100 µM | TGI [6]: > 100 µM | TGI [7]: > 100 µM | TGI [8]: > 100 µM | TGI [9]: > 100 µM | TGI [10]: > 100 µM | TGI [11]: > 100 µM | TGI [12]: > 100 µM | TGI [13]: > 100 µM | TGI [14]: > 100 µM | TGI [15]: > 100 µM | TGI [16]: > 100 µM | TGI [17]: > 100 µM | TGI [18]: > 100 µM | TGI [19]: > 100 µM | TGI [20]: > 100 µM | TGI [21]: > 100 µM | TGI [22]: > 100 µM | TGI [23]: > 100 µM | TGI [24]: > 100 µM | TGI [25]: > 100 µM | TGI [26]: > 100 µM | TGI [27]: > 100 µM | TGI [28]: > 100 µM | TGI [29]: > 100 µM | TGI [30]: > 100 µM | TGI [31]: > 100 µM | TGI [32]: > 100 µM | TGI [33]: > 100 µM | TGI [34]: > 100 µM | TGI [35]: > 100 µM | TGI [36]: > 100 µM | TGI [37]: > 100 µM | TGI [38]: > 100 µM | TGI [39]: > 100 µM | TGI [40]: > 100 µM | TGI [41]: > 100 µM | TGI [42]: > 100 µM | TGI [43]: > 100 µM | TGI [44]: > 100 µM | TGI [45]: > 100 µM | TGI [46]: > 100 µM | TGI [47]: > 100 µM | TGI [48]: > 100 µM | TGI [49]: > 100 µM | TGI [50]: > 100 µM | TGI [51]: > 100 µM | TGI [52]: > 100 µM | TGI [53]: > 100 µM | TGI [54]: > 100 µM | TGI [55]: > 100 µM

CCOc1cc2c(cc1O)C(=O)C[C@@H]1[C@@H]2CC[C@]2(C)[C@@H](O)CC[C@@H]12
TGI [1]: > 53.8 µM | TGI [2]: > 29.1 µM | TGI [3]: > 100 µM | TGI [4]: > 100 µM | TGI [5]: 28.9 µM | TGI [6]: > 100 µM | TGI [7]: > 100 µM | TGI [8]: 47.4 µM | TGI [9]: > 51.9 µM | TGI [10]: > 100 µM | TGI [11]: 4.56 µM | TGI [12]: 38 µM | TGI [13]: 29.3 µM | TGI [14]: > 100 µM | TGI [15]: > 100 µM | TGI [16]: > 12.4 µM | TGI [17]: 29.9 µM | TGI [18]: > 30.3 µM | TGI [19]: 2.27 µM | TGI [20]: 29.6 µM | TGI [21]: > 100 µM | TGI [22]: > 38.9 µM | TGI [56]: > 9.3 µM | TGI [23]: > 100 µM | TGI [24]: 61.8 µM | TGI [25]: 0.222 µM | TGI [26]: 0.106 µM | TGI [27]: > 31.7 µM | TGI [28]: 17 µM | TGI [29]: 43.7 µM | TGI [30]: 12.4 µM | TGI [31]: 3.2 µM | TGI [32]: 8.27 µM | TGI [33]: 1.7 µM | TGI [34]: > 100 µM | TGI [35]: > 100 µM | TGI [36]: 27.1 µM | TGI [37]: > 82.5 µM | TGI [57]: > 9.48 µM | TGI [38]: > 100 µM | TGI [39]: > 95.4 µM | TGI [40]: 9.52 µM | TGI [41]: 0.487 µM | TGI [42]: > 58.1 µM | TGI [43]: > 73.5 µM | TGI [44]: 7.11 µM | TGI [45]: > 73.6 µM | TGI [46]: > 100 µM | TGI [58]: > 55.2 µM | TGI [49]: > 100 µM | TGI [50]: > 100 µM | TGI [51]: > 100 µM | TGI [52]: > 51.9 µM | TGI [53]: > 100 µM | TGI [54]: > 100 µM | TGI [55]: > 100 µM

CC1(C)N([O-])[N+](=O)C1(C)O (stereo unspecified)
TGI [1]: > 100 µM | TGI [2]: > 100 µM | TGI [3]: > 100 µM | TGI [5]: > 100 µM | TGI [6]: > 100 µM | TGI [7]: > 100 µM | TGI [8]: > 100 µM | TGI [9]: > 100 µM | TGI [10]: > 100 µM | TGI [11]: > 100 µM | TGI [12]: > 100 µM | TGI [13]: > 100 µM | TGI [59]: > 100 µM | TGI [16]: > 100 µM | TGI [17]: > 100 µM | TGI [18]: > 100 µM | TGI [19]: > 100 µM | TGI [20]: > 100 µM | TGI [21]: > 100 µM | TGI [22]: > 100 µM | TGI [56]: > 100 µM | TGI [23]: > 100 µM | TGI [24]: > 100 µM | TGI [25]: > 100 µM | TGI [26]: > 100 µM | TGI [27]: > 100 µM | TGI [28]: > 100 µM | TGI [29]: > 100 µM | TGI [30]: > 100 µM | TGI [31]: > 100 µM | TGI [32]: > 100 µM | TGI [33]: > 100 µM | TGI [34]: > 100 µM | TGI [35]: > 100 µM | TGI [36]: > 100 µM | TGI [37]: > 100 µM | TGI [57]: > 100 µM | TGI [38]: > 100 µM | TGI [39]: > 100 µM | TGI [41]: > 100 µM | TGI [42]: > 100 µM | TGI [43]: > 100 µM | TGI [44]: > 100 µM | TGI [45]: > 100 µM | TGI [46]: > 100 µM | TGI [58]: > 100 µM | TGI [47]: > 100 µM | TGI [48]: > 100 µM | TGI [49]: > 100 µM | TGI [50]: > 100 µM | TGI [51]: > 100 µM | TGI [52]: > 100 µM | TGI [53]: > 100 µM | TGI [54]: > 100 µM | TGI [55]: > 100 µM
